Key:
[1] = system: palmer amaranth; assay: Field trial in corn, herbicide applied 3 days after planting, % weed control; type: in vivo, Amaranthus palmeri
Experimental: (§1) The herbicides tested were acetochlor and s-metolachlor. Each herbicide was combined at the specified rate with either deionized water or SymMAX™ supramolecular host chemistry that is commercially available from Shotwell Hydrogenics at 15 gallons per acre (GPA). Specified rates for acetochlor were 0.5 parts per acre, 1 part per acre, and 2 parts per acre. […]
(§2) This example was conducted as a 4 replicate, RCBD (randomized control block design) in Quitman, GA. An untreated control was used as a standard that provided no weed control and no phytotoxicity. All treatments were compared to the untreated control. Counted dead weeds and living weeds were used to determine % weed control. The untreated control was also used to determine % crop phytotoxicity for the crop. Typical indications of phytotoxicity include chlorosis, stunting, epinasty, and/or leaf burn.
(§3) The trial ran for 28 days with weekly data assessments taken on % crop phytotoxicity and % weed control of three key species: palmer amaranth (Amaranthus palmeri), fall panicum (Panicum dichotomiflorum) and large crabgrass (Digitaria sanguinalis). The test field was over seeded with weed seed obtained from the University of Georgia prior to corn planting. Treatments were applied 3 days after planting as a broadcast application at various rates ranging from about 0.5 parts per acre to about 2 parts per acre. Tables 1-4 show the % weed control when the weeds are treated with acetachlor. Tables 4-8 show the % weed control when the weeds are treated with s-metolachlor.

[2] = system: fall panicum; assay: as above; type: in vivo, Panicum dichotomiflorum
Experimental: as §1, §2, §3

[3] = system: large crabgrass; assay: as above; type: in vivo, Digitaria sanguinalis
Experimental: as §1, §2, §3

[4] = system: palmer amaranth; assay: Field trial in corn at V3, broadcast treatment on 2-4 inch weeds, % weed control; type: in vivo, Amaranthus palmeri
Excerpt: (§4) The herbicides tested were glufosinate, glyphosate, and mesotrione. Each herbicide was combined at the specified rate with either deionized water or SymMAX™ supramolecular host water mixture commercially available from Shotwell Hydrogenics at 15 gallons per acre (GPA). Specified rates for glufosinate were 22 ounces per acre, 11 ounces per acre, and 5.5 ounces per acre. Specified rates for glyphosate were 22 ounces per acre, 11 ounces per acre, and 5.5 ounces per acre. Specified rates for mesotrione were 3 ounces per acre, 2 ounces per acre, and 1 ounce per acre.
as §2
(§5) The trial ran for 14 days with weekly data assessments taken on % crop phytotoxicity and % weed control of four key species: palmer amaranth (Amaranthus palmeri), ivyleaf morning glory (Ipomoea hederacea), fall panicum (Panicum dichotomiflorum) and large crabgrass (Digitaria sanguinalis The test field was over seeded with weed seed obtained from the University of Georgia prior to corn planting. Treatments were applied as a broadcast treatment when corn had reached physiological growth stage V3 and weeds were in the 2-4″ size range. Treatments were applied at various rates ranging from about 1 ounce per acre to about 22 ounces per acre. Tables 9-10 show the % weed control when the weeds are treated with glufosinate. Tables 11-12 show the % weed control when the weeds are treated with glyphosphate. Tables 13-14 show the % weed control when the weeds are treated with mesotrione.

[5] = system: ivyleaf morning glory; assay: as above; type: in vivo, Ipomoea hederacea
Excerpt: as §4, §2, §5

[6] = system: fall panicum; assay: as above; type: in vivo, Panicum dichotomiflorum
Excerpt: as §4, §2, §5

[7] = system: large crabgrass; assay: as above; type: in vivo, Digitaria sanguinalis
Excerpt: as §4, §2, §5

[8] = 7 days, s-metolachlor 0.75 part/acre
[9] = 7 days, s-metolachlor 1 part/acre
[10] = 7 days, s-metolachlor 1.5 parts/acre
[11] = 14 days, s-metolachlor 0.75 part/acre
[12] = 14 days, s-metolachlor 1 part/acre
[13] = 14 days, s-metolachlor 1.5 parts/acre
[14] = 21 days, s-metolachlor 0.75 part/acre
[15] = 21 days, s-metolachlor 1 part/acre
[16] = 21 days, s-metolachlor 1.5 parts/acre
[17] = 28 days, s-metolachlor 0.75 part/acre
[18] = 28 days, s-metolachlor 1 part/acre
[19] = 28 days, s-metolachlor 1.5 parts/acre
[20] = 7 days, glyphosate 5.5 ounces/acre
[21] = 7 days, glyphosate 11 ounces/acre
[22] = 7 days, glyphosate 22 ounces/acre
[23] = 14 days, glyphosate 5.5 ounces/acre
[24] = 14 days, glyphosate 11 ounces/acre
[25] = 14 days, glyphosate 22 ounces/acre

## CCc1cccc(C)c1N(C(=O)CCl)[C@@H](C)COC [S-metolachlor, s-metolachlor]
[1]; [8]
  % WEED CONTROL FOR PALMER AMARANTH: 96.0%
[1]; [9]
  % WEED CONTROL FOR PALMER AMARANTH: 99.3%
[1]; [10]
  % WEED CONTROL FOR PALMER AMARANTH: 100.0%
[1]; [11]
  % WEED CONTROL FOR PALMER AMARANTH: 94.3%
[1]; [12]
  % WEED CONTROL FOR PALMER AMARANTH: 98.0%
[1]; [13]
  % WEED CONTROL FOR PALMER AMARANTH: 100.0%
[1]; [14]
  % WEED CONTROL FOR PALMER AMARANTH: 96.0%
[1]; [15]
  % WEED CONTROL FOR PALMER AMARANTH: 99.0%
[1]; [16]
  % WEED CONTROL FOR PALMER AMARANTH: 100.0%
[1]; [17]
  % WEED CONTROL FOR PALMER AMARANTH: 98.8%
[1]; [18]
  % WEED CONTROL FOR PALMER AMARANTH: 100.0%
[1]; [19]
  % WEED CONTROL FOR PALMER AMARANTH: 100.0%
[2]; [8]
  % WEED CONTROL FOR FALL PANICUM: 91.3%
[2]; [9]
  % WEED CONTROL FOR FALL PANICUM: 97.5%
[2]; [10]
  % WEED CONTROL FOR FALL PANICUM: 100.0%
[2]; [11]
  % WEED CONTROL FOR FALL PANICUM: 83.5%
[2]; [12]
  % WEED CONTROL FOR FALL PANICUM: 91.8%
[2]; [13]
  % WEED CONTROL FOR FALL PANICUM: 97.8%
[2]; [14]
  % WEED CONTROL FOR FALL PANICUM: 90.1%
[2]; [15]
  % WEED CONTROL FOR FALL PANICUM: 89.4%
[2]; [16]
  % WEED CONTROL FOR FALL PANICUM: 98.9%
[2]; [17]
  % WEED CONTROL FOR FALL PANICUM: 88.3%
[2]; [18]
  % WEED CONTROL FOR FALL PANICUM: 97.3%
[2]; [19]
  % WEED CONTROL FOR FALL PANICUM: 100.0%
[3]; [8]
  % WEED CONTROL FOR LARGE CRABGRASS: 92.0%
[3]; [9]
  % WEED CONTROL FOR LARGE CRABGRASS: 99.0%
[3]; [10]
  % WEED CONTROL FOR LARGE CRABGRASS: 100.0%
[3]; [11]
  % WEED CONTROL FOR LARGE CRABGRASS: 82.8%
[3]; [12]
  % WEED CONTROL FOR LARGE CRABGRASS: 89.0%
[3]; [13]
  % WEED CONTROL FOR LARGE CRABGRASS: 98.0%
[3]; [14]
  % WEED CONTROL FOR LARGE CRABGRASS: 91.3%
[3]; [15]
  % WEED CONTROL FOR LARGE CRABGRASS: 84.3%
[3]; [16]
  % WEED CONTROL FOR LARGE CRABGRASS: 93.0%
[3]; [17]
  % WEED CONTROL FOR LARGE CRABGRASS: 90.0%
[3]; [18]
  % WEED CONTROL FOR LARGE CRABGRASS: 99.7%
[3]; [19]
  % WEED CONTROL FOR LARGE CRABGRASS: 100.0%

## O=C(O)CNCP(=O)(O)O [Glyphosate, glyphosate]
[4]; [20]
  % WEED CONTROL FOR PALMER AMARANTH: 63.8%
[4]; [21]
  % WEED CONTROL FOR PALMER AMARANTH: 76.4%
[4]; [22]
  % WEED CONTROL FOR PALMER AMARANTH: 81.9%
[4]; [23]
  % WEED CONTROL FOR PALMER AMARANTH: 58.3%
[4]; [24]
  % WEED CONTROL FOR PALMER AMARANTH: 75.8%
[4]; [25]
  % WEED CONTROL FOR PALMER AMARANTH: 83.5%
[5]; [20]
  % WEED CONTROL FOR IVYLEAF MORNINGLORY: 14.3%
[5]; [21]
  % WEED CONTROL FOR IVYLEAF MORNINGLORY: 13.5%
[5]; [22]
  % WEED CONTROL FOR IVYLEAF MORNINGLORY: 28.0%
[5]; [23]
  % WEED CONTROL FOR IVYLEAF MORNINGLORY: 9.7%
[5]; [24]
  % WEED CONTROL FOR IVYLEAF MORNINGLORY: 59.8%
[5]; [25]
  % WEED CONTROL FOR IVYLEAF MORNINGLORY: 76.3%
[6]; [20]
  % WEED CONTROL FOR FALL PANICUM: 85.8%
[6]; [21]
  % WEED CONTROL FOR FALL PANICUM: 97.5%
[6]; [22]
  % WEED CONTROL FOR FALL PANICUM: 98.8%
[6]; [23]
  % WEED CONTROL FOR FALL PANICUM: 81.8%
[6]; [24]
  % WEED CONTROL FOR FALL PANICUM: 95.4%
[6]; [25]
  % WEED CONTROL FOR FALL PANICUM: 98.4%
[7]; [20]
  % WEED CONTROL FOR LARGE CRABGRASS: 90.8%
[7]; [21]
  % WEED CONTROL FOR LARGE CRABGRASS: 97.8%
[7]; [22]
  % WEED CONTROL FOR LARGE CRABGRASS: 100.0%
[7]; [23]
  % WEED CONTROL FOR LARGE CRABGRASS: 89.0%
[7]; [24]
  % WEED CONTROL FOR LARGE CRABGRASS: 94.0%
[7]; [25]
  % WEED CONTROL FOR LARGE CRABGRASS: 98.0%

From patent US20230109010A1, “PESTICIDE COMPOSITIONS WITH SUPRAMOLECULAR STRUCTURES FOR AGRICULTURAL USE” (BPS JUST ENERGY TECHNOLOGY, LLC, priority 2020, published 2023)
